Assay results as given in patent publication US20260357306A1, “ONE-POT FERMENTATIVE PRODUCTION OF GLYCOLATE OR OTHER HYDROXYCARBOXYLIC ACIDS” (PHYCUS BIOTECHNOLOGIES INC., priority 2023, published 2026).
Blank lines part the entries; values can stand above or below the molecule they belong to.

How the values were obtained:
[1] = molecular target: T1, Escherichia coli aldehyde dehydrogenase ecoALDH (aldA), SEQ ID NO: 265 (Escherichia coli, UniProt P25553); test: Aldehyde dehydrogenase (glycolaldehyde to glycolic acid) kinetics, ecoALDH; format: biochemical
T1 construct: made in house; host or cells: E. coli BL21 (DE3)
T1 sequence (P25553 1-479): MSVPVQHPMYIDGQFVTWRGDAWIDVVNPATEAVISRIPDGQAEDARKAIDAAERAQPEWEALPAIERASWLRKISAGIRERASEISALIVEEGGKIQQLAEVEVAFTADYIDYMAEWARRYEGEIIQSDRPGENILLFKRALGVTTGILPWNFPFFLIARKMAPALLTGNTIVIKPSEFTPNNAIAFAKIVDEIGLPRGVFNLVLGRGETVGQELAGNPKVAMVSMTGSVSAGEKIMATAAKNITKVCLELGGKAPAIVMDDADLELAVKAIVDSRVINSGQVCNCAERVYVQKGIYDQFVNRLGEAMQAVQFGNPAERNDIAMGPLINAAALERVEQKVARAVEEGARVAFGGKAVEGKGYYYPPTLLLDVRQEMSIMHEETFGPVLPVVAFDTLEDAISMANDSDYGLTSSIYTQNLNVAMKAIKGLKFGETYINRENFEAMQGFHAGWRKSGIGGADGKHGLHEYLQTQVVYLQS
Excerpt: (§1) Enzyme expression and purification: The enzymes of interest were genetically engineered in the E. coli BL21 (DE3) strain on a high copy plasmid under control of the T7 promoter. The enzymes were tagged with a hexahistidine (His-tag) sequence to facilitate for purification. Post-expression, the His-tagged enzymes were selectively bound to a nickel-charged immobilized metal affinity chromatography (IMAC) resin, exploiting the high affinity between histidine residues and nickel ions. Upon washing away non-specifically bound proteins, the His-tagged enzymes were eluted with an imidazole-containing buffer and subsequently used for enzymatic assays.
(§2) Enzyme assays: Standard enzyme characterization protocols were performed to determine the activities of the enzymes. Dehydrogenase activity against the substrates was determined using a continuous assay following the increase in absorbance at 340 nm ε340 (NADH)=6.22 mM^−1. cm^−1, and ε340 (NADPH)=6.2 mM^−1·cm^−1]. […]
A second enzymatic step in the processes described herein relate to the conversion of an aliphatic polyhydric aldehyde substrate (e.g., glycolaldehyde) to a corresponding alpha-hydroxy acid (e.g., glycolic acid). […] The reaction was initiated by the addition of the purified enzyme, and activity was measured by monitoring the formation of glycolic acid over time. […]

[2] = molecular target: T2, Pseudomonas putida aldehyde dehydrogenase ppuALDH, SEQ ID NO: 267 (Pseudomonas putida, UniProt Q88K06); test: Aldehyde dehydrogenase (glycolaldehyde to glycolic acid) kinetics, ppuALDH; format: biochemical
T2 sequence (Q88K06 1-503): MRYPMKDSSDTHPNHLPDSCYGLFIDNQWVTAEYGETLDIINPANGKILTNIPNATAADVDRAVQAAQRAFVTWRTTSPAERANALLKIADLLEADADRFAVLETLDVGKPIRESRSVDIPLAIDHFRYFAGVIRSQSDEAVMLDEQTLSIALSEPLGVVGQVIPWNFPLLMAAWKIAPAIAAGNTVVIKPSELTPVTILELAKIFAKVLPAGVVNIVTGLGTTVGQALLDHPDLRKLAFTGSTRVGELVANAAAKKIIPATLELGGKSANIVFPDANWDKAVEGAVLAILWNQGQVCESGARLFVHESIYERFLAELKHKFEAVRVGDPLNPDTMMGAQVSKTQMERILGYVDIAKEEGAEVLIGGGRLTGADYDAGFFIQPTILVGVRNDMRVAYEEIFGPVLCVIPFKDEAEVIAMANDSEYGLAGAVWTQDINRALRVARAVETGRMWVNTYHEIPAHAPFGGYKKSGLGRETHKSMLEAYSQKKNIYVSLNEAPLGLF
Excerpt: as §1
as §2, with “mM^−1·cm^−1]. Substrate screens were performed at 30 °C in a reaction mixture (200 μL) containing 50 mM of substrate in 100 mM Tris-HCl (pH 8.5), 1 mM NAD^+, 1 mM substrate, and 10 μg of purified protein.” for “mM^−1·cm^−1].”
A second enzymatic step in the processes described herein relate to the conversion of an aliphatic polyhydric aldehyde substrate (e.g., glycolaldehyde) to a corresponding alpha-hydroxy acid (e.g., glycolic acid). […] In order to identify potentially higher-performing enzymes for industrial use capable of converting glycolaldehyde to glycolic acid, we evaluated a plurality of candidates based on either close, medium, or distant phylogeny to ecoALDH (SEQ ID NO: 265). A subset of candidate enzymes were cloned, expressed, and purified, along with ecoALDH as a control, as described in Example 8.1, and their in vitro enzymatic activities were measured in a reaction mixture consisting of 50 mM glycolaldehyde in 100 mM Tris-HCl buffer (pH 8.5). The reaction was initiated by the addition of the purified enzyme, and activity was measured by monitoring the formation of glycolic acid over time. […]

[3] = tested on: Gluconobacter oxydans zinc-dependent medium-chain alcohol dehydrogenase Gox0313, SEQ ID NO: 206; settings: role: substrate, Zhang et al., 2015, cited from earlier work
[4] = molecular target: T3, Azotobacter vinelandii aldehyde dehydrogenase aviALDH, SEQ ID NO: 266 (Azotobacter vinelandii, UniProt C1DMY3); test: Aldehyde dehydrogenase (glycolaldehyde to glycolic acid) kinetics, aviALDH; format: biochemical
T3 sequence (C1DMY3 1-477): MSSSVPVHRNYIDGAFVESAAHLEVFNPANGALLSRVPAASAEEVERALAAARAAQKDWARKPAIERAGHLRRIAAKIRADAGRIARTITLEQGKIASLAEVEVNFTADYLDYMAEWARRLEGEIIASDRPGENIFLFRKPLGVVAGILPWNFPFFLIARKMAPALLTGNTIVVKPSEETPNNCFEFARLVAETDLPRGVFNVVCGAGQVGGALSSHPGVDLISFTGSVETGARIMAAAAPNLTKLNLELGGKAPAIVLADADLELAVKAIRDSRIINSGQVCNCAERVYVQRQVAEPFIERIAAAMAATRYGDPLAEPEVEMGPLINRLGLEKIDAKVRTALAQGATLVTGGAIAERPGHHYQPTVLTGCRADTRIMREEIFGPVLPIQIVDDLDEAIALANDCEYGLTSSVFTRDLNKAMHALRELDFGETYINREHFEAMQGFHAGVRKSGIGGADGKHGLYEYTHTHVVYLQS
Excerpt: as §1
Enzyme assays: Standard enzyme characterization protocols were performed to determine the activities of the enzymes. Dehydrogenase activity against the substrates was determined using a continuous assay following the increase in absorbance at 340 nm ε340 (NADH)=6.22 mM^−1. cm^−1, and ε340 (NADPH)=6.2 mM^−1·cm^−1]. Substrate screens were performed at 30 °C in a reaction mixture (200 μL) containing 50 mM of substrate in 100 mM Tris-HCl (pH 8.5), 1 mM NAD^+, 1 mM substrate, and 10 μg of purified protein. Initial velocity patterns of the enzymatic reaction were obtained by varying the concentrations of ethylene glycol at fixed concentrations of enzyme concentration in the presence of the saturating NAD concentrations.
A second enzymatic step in the processes described herein relate to the conversion of an aliphatic polyhydric aldehyde substrate (e.g., glycolaldehyde) to a corresponding alpha-hydroxy acid (e.g., glycolic acid). E. coli aldehyde dehydrogenase aldA (ecoALDH) has been reported to catalyze the intracellular enzymatic conversion of glycolaldehyde (GA) to glycolic acid (e.g., Wada et al. 2005; Morishige et al., 2007; Pandit et al., 2019; Pandit et al., 2021). In order to identify potentially higher-performing enzymes for industrial use capable of converting glycolaldehyde to glycolic acid, we evaluated a plurality of candidates based on either close, medium, or distant phylogeny to ecoALDH (SEQ ID NO: 265). A subset of candidate enzymes were cloned, expressed, and purified, along with ecoALDH as a control, as described in Example 8.1, and their in vitro enzymatic activities were measured in a reaction mixture consisting of 50 mM glycolaldehyde in 100 mM Tris-HCl buffer (pH 8.5). The reaction was initiated by the addition of the purified enzyme, and activity was measured by monitoring the formation of glycolic acid over time. […]

[5] = substrate: OCCO; test: Alcohol dehydrogenase (EG oxidation) Michaelis-Menten kinetics, goxADH; format: biochemical, Gluconobacter oxydans; settings: other: role: substrate, 100 mM Tris-HCl pH 8.5, 30 °C, saturating NAD, EG 1-100 mM
Excerpt: as §1, §2
(§3) The candidate alcohol dehydrogenase enzymes were next characterized for their enzymatic activity. […] Reactions were initiated by the addition of the purified enzyme and enzymatic activity was measured by monitoring the formation of the product (glycolaldehyde) over time as described in Example 8.1. […]

[6] = substrate: OCCO; test: Alcohol dehydrogenase (EG oxidation) Michaelis-Menten kinetics, gdiADH; format: biochemical, Gluconobacter diazotrophicus; settings: other: role: substrate, 100 mM Tris-HCl pH 8.5, 30 °C, saturating NAD, EG 1-100 mM
Excerpt: as §1, §2, §3

[7] = substrate: OCCO; test: Alcohol dehydrogenase (EG oxidation) Michaelis-Menten kinetics, gmoADH; format: biochemical, Gluconobacter morbifer; settings: other: role: substrate, 100 mM Tris-HCl pH 8.5, 30 °C, saturating NAD, EG 1-100 mM
Excerpt: as §1, §2, §3

[8] = role: inhibitor, substrate inhibition, relative to ecoALDH
[9] = role: substrate, relative to ecoALDH
[10] = role: substrate, versus ecoALDH

Relative KI ([1]; role: inhibitor, substrate inhibition): 1.0
Relative kcat ([1]; role: substrate): 1.0
Relative KI [2, 8]: 1.3
Relative kcat [2, 9]: 5.8
catalytic turnover rate, fold higher than ecoALDH [2, 10]: 5.8 fold
resistance to substrate inhibition, fold higher than ecoALDH ([4]; role: inhibitor, glycolaldehyde substrate inhibition, versus ecoALDH): 5.6 fold
Relative KI [4, 8]: 5.6
Relative kcat [4, 9]: 5.3
catalytic turnover rate, fold higher than ecoALDH [4, 10]: 5.3 fold
Molecule: O=CCO [glycolaldehyde]
turnover and catalytic efficiency for glycolaldehyde as a substrate ([3]; compared to ethylene glycol): higher turnover and catalytic efficiency
affinity and catalytic rate for glycolaldehyde reduction to ethylene glycol ([3]; compared to the oxidation of ethylene glycol): higher affinity and catalytic rate

B1: Gluconobacter oxydans alcohol dehydrogenase goxADH (Gox0313), SEQ ID NO: 206 (Gluconobacter oxydans 621H) (protein)
chain: MADTMLAAVVREFGKPLSIERLPIPDIKPHQILVKVDTCGVCHTDLHAARGDWPSKPNPPFIPGHEGVGHIVAVGSQVGDFVKTGDVVGVPWLYSACGHCEHCLGGWETLCEKQDDTGYTVNGCFAEYVVADPNYVAHLPSTIDPLQASPVLCAGLTVYKGLKMTEARPGQWVAVSGVGGLGQMAVQYAVAMGMNVVAVDIDDEKLATAKKLGASLTVNAKDTDPARFIQQQIGGAHGALVTAVGRTAFSQAMGYARRGGTIVLNGLPPGDFPVSIFDMVMNGTTIRGSIVGTRLDMIEAMDFFARGKVKSVVTPGKLENINTIFDDLQNGRLEGRTVLDFRS
Vmax [5]: 2.0 ± 0.1 µmol/min/mg

B2: Gluconobacter diazotrophicus alcohol dehydrogenase gdiADH, SEQ ID NO: 208 (Gluconacetobacter diazotrophicus PA1 5) (protein)
chain: MRSADTILGGTSMTGKMKAAVVREFGKPLTIEELDIPSIRPDQILVKMDACGVCHTDLHAARGDWPVKPNPPFIPGHEGVGHVVSVGSAVKWVKLGDVVGVPWLYSACGHCEHCLGGWETLCASQDDTGYTVNGCFAEYVVADPSYVAHLPKTIDPLQVAPVLCAGLTVYKGLKMTDTKPGDWVAVSGVGGLGQMAVQYGVAMGMNVIAVDIDDEKLATAKALGAALTVNARATDPAPFIQSQVGGAHGALVTAVSRSAFSQAMGFARRGGTIVLNGLPPGEFPISIFDMVMAGTTVRGSIVGTRLDMIEAVSFFADGKVKTVIEPDRLENINQIFTDLEEGKIQGRKVLDFRQ
Km [6]: 230 ± 87 μM EG
Vmax [6]: 7.5 ± 2.1 µmol/min/mg

B3: Gluconobacter morbifer alcohol dehydrogenase gmoADH, SEQ ID NO: 207 (Gluconobacter morbifer G707) (protein)
chain: MADTMQAAVVREFGKPLSIERVPVPEIRPNQILVKVETCGVCHTDLHAARGDWPTKPNPPFIPGHEGVGRIVALGSQVGDFVKVGDRVGVPWLYSACGHCEHCLGGWETLCEKQEDTGYSVNGCFAEYVAADPNYVAHLPENIDPLETSPVLCAGLTVYKGLKMTEARPGQWVAVSGIGGLGQMAVQYAVAMGMNVVAVDIDDGKLETAKKLGAVLTVNAKDRDPAKFVQQEIGGAHGALVTAVGRTAFAQAMGYARRGGTIVLNGLPPGDFPISIFDMVMNGTTVRGSIVGTRLDMIEALDFFARGKVKSVVTADKLENINTIFDNLQNGRLAGRTVLDFRS
Km [7]: 200 ± 44 μM EG
Vmax [7]: 4.9 ± 0.8 µmol/min/mg
